Data as given in patent US11638707B2, “Substituted amino triazoles useful as chitinase inhibitors” (Molecure S.A., priority 2019, dated 2023).
pIC50: −log10 of the molar value. Counter-ions that a name gives are not always drawn.

Tests used:
recombinant human CHIT1 = recombinant human CHIT1 (Homo sapiens (Human), UniProt Q13231); test: Human CHIT1 activity assay; assay type: biochemical; conditions: recombinant human CHIT1, citrate buffer pH 5.2, 37° C., 60 minutes; read-out: hCHIT1, IC50
Method in brief: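 Recombinant human CHIT1 hydrolysed 4-methylumbelliferyl β-D-N,N′,N″-triacetylchitotriose in citrate buffer, pH 5.2, for 60 minutes at 37° C in the dark with shaking. Released 4MU was read by fluorescence at 460 nm under basic pH; IC50 values were calculated from dilution series.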

hERG channel = hERG channel (Homo sapiens (Human), UniProt Q12809); test: Human ERG channel binding assay (fluorescence polarization); conditions: Table 1; tracer displacement, 4 h at room temperature
Method in brief: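 Serially diluted compounds were incubated with a hERG-containing membrane fraction and a high-affinity red-shifted fluorescent hERG ligand. Displacement of the tracer was read by fluorescence polarization, and IC50 values were derived from the concentration-response curves.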

recombinant human AMCase = recombinant human AMCase (Homo sapiens (Human), UniProt Q9BZP6); test: Human AMCase activity assay; assay type: biochemical; conditions: citrate buffer pH 5.2, 37° C., 60 minutes, read-out: hAMCase, IC50
Method in brief: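 Recombinant hAMCase hydrolysed 4-methylumbelliferyl β-D-N,N′-diacetylchitobioside in citrate buffer pH 5.2, run 60 min at 37 °C in the dark with shaking. Released 4MU fluorescence was read at 460 nm under basic pH, and IC50 values were fitted from the compound dilutions.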

Sequence of recombinant human AMCase (Q9BZP6 22-476): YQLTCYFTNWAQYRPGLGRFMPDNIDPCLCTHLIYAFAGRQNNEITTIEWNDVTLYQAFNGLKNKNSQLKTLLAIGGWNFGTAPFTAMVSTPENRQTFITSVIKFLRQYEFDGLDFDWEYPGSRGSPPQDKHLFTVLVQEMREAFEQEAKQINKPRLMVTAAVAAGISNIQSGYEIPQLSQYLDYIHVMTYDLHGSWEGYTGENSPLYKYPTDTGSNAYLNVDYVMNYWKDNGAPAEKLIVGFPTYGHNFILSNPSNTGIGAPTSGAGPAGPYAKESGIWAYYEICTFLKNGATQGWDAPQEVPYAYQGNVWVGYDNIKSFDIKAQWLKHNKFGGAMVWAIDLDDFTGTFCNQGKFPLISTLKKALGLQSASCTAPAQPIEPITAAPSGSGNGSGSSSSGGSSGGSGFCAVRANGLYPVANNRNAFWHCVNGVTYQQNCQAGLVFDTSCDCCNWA
Sequence of recombinant human CHIT1 (Q13231 22-466): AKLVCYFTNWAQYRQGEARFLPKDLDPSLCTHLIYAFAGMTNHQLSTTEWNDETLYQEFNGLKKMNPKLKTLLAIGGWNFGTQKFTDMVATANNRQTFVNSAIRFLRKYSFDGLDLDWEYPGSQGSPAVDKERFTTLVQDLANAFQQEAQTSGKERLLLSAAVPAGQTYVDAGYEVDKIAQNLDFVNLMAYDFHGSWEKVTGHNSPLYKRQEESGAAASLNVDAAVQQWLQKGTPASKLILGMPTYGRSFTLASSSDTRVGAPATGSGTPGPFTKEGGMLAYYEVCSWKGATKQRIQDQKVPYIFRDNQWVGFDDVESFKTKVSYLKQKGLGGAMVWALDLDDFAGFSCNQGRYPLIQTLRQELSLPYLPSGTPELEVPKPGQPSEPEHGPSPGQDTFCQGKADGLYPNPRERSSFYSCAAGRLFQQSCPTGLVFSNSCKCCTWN
Sequence of hERG channel (Q12809 whole entry): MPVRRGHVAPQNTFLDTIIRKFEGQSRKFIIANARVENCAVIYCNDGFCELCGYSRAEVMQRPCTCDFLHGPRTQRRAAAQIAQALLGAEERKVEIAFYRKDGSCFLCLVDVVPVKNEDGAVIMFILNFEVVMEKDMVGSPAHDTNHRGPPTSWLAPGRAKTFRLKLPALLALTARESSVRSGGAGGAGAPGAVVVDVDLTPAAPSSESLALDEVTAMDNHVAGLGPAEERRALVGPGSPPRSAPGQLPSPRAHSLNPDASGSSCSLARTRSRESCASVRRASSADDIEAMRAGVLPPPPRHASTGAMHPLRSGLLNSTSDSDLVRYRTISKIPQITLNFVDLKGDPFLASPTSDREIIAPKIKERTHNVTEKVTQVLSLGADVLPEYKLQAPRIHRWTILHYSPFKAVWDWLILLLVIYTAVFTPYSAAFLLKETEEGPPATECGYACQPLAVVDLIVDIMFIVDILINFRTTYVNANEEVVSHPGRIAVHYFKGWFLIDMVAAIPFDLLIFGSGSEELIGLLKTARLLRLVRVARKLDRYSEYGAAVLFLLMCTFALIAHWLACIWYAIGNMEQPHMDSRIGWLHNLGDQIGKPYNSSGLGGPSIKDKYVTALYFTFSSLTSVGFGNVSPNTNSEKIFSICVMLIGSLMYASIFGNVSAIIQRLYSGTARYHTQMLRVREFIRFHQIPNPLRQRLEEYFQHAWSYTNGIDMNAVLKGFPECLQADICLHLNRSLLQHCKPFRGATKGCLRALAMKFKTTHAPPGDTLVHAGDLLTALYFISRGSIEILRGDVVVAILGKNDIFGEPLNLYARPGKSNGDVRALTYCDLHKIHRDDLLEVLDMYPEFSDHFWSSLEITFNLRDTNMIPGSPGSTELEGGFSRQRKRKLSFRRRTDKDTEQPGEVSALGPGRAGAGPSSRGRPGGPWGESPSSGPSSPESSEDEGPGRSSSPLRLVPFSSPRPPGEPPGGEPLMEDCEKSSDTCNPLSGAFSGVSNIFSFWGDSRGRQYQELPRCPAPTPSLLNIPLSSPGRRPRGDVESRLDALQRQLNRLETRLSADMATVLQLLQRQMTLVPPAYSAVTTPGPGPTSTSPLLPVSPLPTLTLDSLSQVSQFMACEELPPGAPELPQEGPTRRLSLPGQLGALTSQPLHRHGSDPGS

Compound | pIC50 (recombinant human CHIT1) | pIC50 (recombinant human AMCase) | pIC50 (hERG channel)
Nc1nnc(N2CCC(N3C[C@H](C(=O)N4CCC(F)(F)CC4)OC[C@@H]3Cc3ccc(Cl)cc3)CC2)[nH]1 [Example 53, ((2R,5S)-4-(1-(5-amino-4H-1,2,4-triazol-3-yl)piperidin-4-yl)-5-(4-chlorobenzyl)-morpholin-2-yl)(4,4-difluoropiperidin-1-yl)methanone 2,2,2-trifluoroacetate] | 6.00 to 7.00 | > 7.00 | 4.00 to 4.60
Nc1nnc(N2CCC(N3C[C@H](C(=O)N4CCC(F)(F)C4)OC[C@@H]3Cc3ccc(Cl)cc3)CC2)[nH]1 [Example 54, ((2R,5S)-4-(1-(5-amino-4H-1,2,4-triazol-3-yl)piperidin-4-yl)-5-(4-chlorobenzyl)-morpholin-2-yl)(3,3-difluoropyrrolidin-1-yl)methanone 2,2,2-trifluoroacetate] | 6.00 to 7.00 | > 7.00 | < 4.00
Nc1nnc(N2CCC(N3C[C@H](N4CCOCC4)C[C@@H]3Cc3ccc(Cl)cc3)CC2)[nH]1 [Example 55, 5-(4-((2S,4R)-2-(4-chlorobenzyl)-4-morpholinopyrrolidin-1-yl)piperidin-1-yl)-4H-1,2,4-triazol-3-amine 2,2,2-trifluoroacetate] | > 7.00 | > 7.00 | 4.00 to 4.60
Nc1nnc(N2CCC(N3CC(F)(F)CC[C@@H]3Cc3ccc(Cl)cc3)CC2)[nH]1 [Example 57, (R)-5-(2-(4-chlorobenzyl)-5,5-difluoro-[1,4′-bipiperidin]-1′-yl)-4H-1,2,4-triazol-3-amine 2,2,2-trifluoroacetate] | > 7.00 | > 7.00 | < 4.00
Nc1nnc(N2CCC(N3C[C@H](N4CCOCC4)CC[C@@H]3Cc3ccc(Cl)cc3)CC2)[nH]1 [Example 58, 5-((2R,5R)-2-(4-chlorobenzyl)-5-morpholino-[1,4′-bipiperidin]-1′-yl)-4H-1,2,4-triazol-3-amine 2,2,2-trifluoroacetate] | 6.00 to 7.00 | > 7.00 | 4.60 to 5.00
Nc1nnc(N2CCC(N3C[C@H](C(=O)N4CCCC4)OC[C@@H]3Cc3ccc(Cl)cc3)CC2)[nH]1 [Example 60, ((2R,5S)-4-(1-(5-amino-4H-1,2,4-triazol-3-yl)piperidin-4-yl)-5-(4-chlorobenzyl)-morpholin-2-yl)(pyrrolidin-1-yl)methanone 2,2,2-trifluoroacetate] | 6.00 to 7.00 | > 7.00 | < 4.00
CC1CN(C(=O)[C@H]2CN(C3CCN(c4nnc(N)[nH]4)CC3)[C@@H](Cc3ccc(Cl)cc3)CO2)C1 [Example 61, ((2R,5S)-4-(1-(5-amino-4H-1,2,4-triazol-3-yl)piperidin-4-yl)-5-(4-chlorobenzyl)-morpholin-2-yl)(3-methylazetidin-1-yl)methanone 2,2,2-trifluoroacetate] | > 7.00 | > 7.00 | < 4.00
Nc1nnc(N2CCC(N3C[C@H](C(=O)N4CC(F)C4)OC[C@@H]3Cc3ccc(Cl)cc3)CC2)[nH]1 [Example 62, ((2R,5S)-4-(1-(5-amino-4H-1,2,4-triazol-3-yl)piperidin-4-yl)-5-(4-chlorobenzyl)-morpholin-2-yl)(3-fluoroazetidin-1-yl)methanone 2,2,2-trifluoroacetate] | > 7.00 | > 7.00 | < 4.00
Nc1nnc(N2CCC(N3C[C@H](C(=O)N4CCOCC4)OC[C@@H]3Cc3ccc(Cl)cc3)CC2)[nH]1 [Example 63, ((2R,5S)-4-(1-(5-amino-4H-1,2,4-triazol-3-yl)piperidin-4-yl)-5-(4-chlorobenzyl)-morpholin-2-yl)(morpholino)methanone 2,2,2-trifluoroacetate] | 6.00 to 7.00 | > 7.00 | < 4.00

Continued, in another order:

pIC50 (recombinant human CHIT1) | pIC50 (recombinant human AMCase) | Compound | pIC50 (hERG channel)
> 7.00 | > 7.00 | CC(C)(O)[C@H]1CN(C2CCN(c3nnc(N)[nH]3)CC2)[C@@H](Cc2ccc(Br)cc2)CO1 [Example 64, 2-((2R,5S)-4-(1-(5-amino-4H-1,2,4-triazol-3-yl)piperidin-4-yl)-5-(4-bromobenzyl)-morpholin-2-yl)propan-2-ol 2,2,2-trifluoroacetate] | < 4.00
6.00 to 7.00 | > 7.00 | CC(C)NC(=O)[C@H]1CN(C2CCN(c3nnc(N)[nH]3)CC2)[C@@H](Cc2ccc(Cl)cc2)CO1 [Example 65, (2R,5S)-4-(1-(5-amino-4H-1,2,4-triazol-3-yl)piperidin-4-yl)-5-(4-chlorobenzyl)-N-isopropylmorpholine-2-carboxamide 2,2,2-trifluoroacetate] | < 4.00
6.00 to 7.00 | > 7.00 | CC(C)(C)NC(=O)[C@H]1CN(C2CCN(c3nnc(N)[nH]3)CC2)[C@@H](Cc2ccc(Cl)cc2)CO1 [Example 66, (2R,5S)-4-(1-(5-amino-4H-1,2,4-triazol-3-yl)piperidin-4-yl)-N-(tert-butyl)-5-(4-chlorobenzyl)morpholine-2-carboxamide 2,2,2-trifluoroacetate] | < 4.00
> 7.00 | > 7.00 | C[C@@H](O)[C@H]1CN(C2CCN(c3nnc(N)[nH]3)CC2)[C@@H](Cc2ccc(Cl)cc2)CO1 [Example 67, (R)-1-((2R,5S)-4-(1-(5-amino-4H-1,2,4-triazol-3-yl)piperidin-4-yl)-5-(4-chlorobenzyl)morpholin-2-yl)ethanol 2,2,2-trifluoroacetate] | < 4.00
> 7.00 | > 7.00 | CCC(O)(CC)[C@H]1CN(C2CCN(c3nnc(N)[nH]3)CC2)[C@@H](Cc2ccc(Cl)cc2)CO1 [Example 68, 3-((2R,5S)-4-(1-(5-amino-4H-1,2,4-triazol-3-yl)piperidin-4-yl)-5-(4-chlorobenzyl)-morpholin-2-yl)pentan-3-ol 2,2,2-trifluoroacetate] | 4.00 to 4.60
> 7.00 | > 7.00 | CC(C)CNC(=O)[C@H]1CN(C2CCN(c3nnc(N)[nH]3)CC2)[C@@H](Cc2ccc(Cl)cc2)CO1 [Example 69, (2R,5S)-4-(1-(5-amino-4H-1,2,4-triazol-3-yl)piperidin-4-yl)-5-(4-chlorobenzyl)-N-isobutylmorpholine-2-carboxamide 2,2,2-trifluoroacetate] | 4.00 to 4.60
6.00 to 7.00 | > 7.00 | Nc1nnc(N2CCC(N3C[C@@H]4COCCN4C[C@@H]3Cc3ccc(Cl)cc3)CC2)[nH]1 [Example 73, 5-(4-((7S,9aR)-7-(4-chlorobenzyl)hexahydropyrazino[2,1-c][1,4]oxazin-8(1H)-yl)piperidin-1-yl)-4H-1,2,4-triazol-3-amine hydrochloride] | 5.00 to 6.00
> 7.00 | > 7.00 | C[C@H]1CN(C2CCN(c3nnc(N)[nH]3)CC2)[C@@H](Cc2ccc(Br)cc2)CO1 [Example 75, 5-(4-((2S,5S)-5-(4-bromobenzyl)-2-methylmorpholino)piperidin-1-yl)-4H-1,2,4-triazol-3-amine 2,2,2-trifluoroacetate] | 5.00 to 6.00
> 7.00 | > 7.00 | Nc1nnc(N2CCC(N3C[C@H](CF)OC[C@@H]3Cc3ccc(Br)cc3)CC2)[nH]1 [Example 76, 5-(4-((2R,5S)-5-(4-bromobenzyl)-2-(fluoromethyl)morpholino)piperidin-1-yl)-4H-1,2,4-triazol-3-amine 2,2,2-trifluoroacetate] | < 4.00
> 7.00 | > 7.00 | Nc1nnc(N2CCC(N3C[C@@H]4CC(F)(F)CN4C[C@@H]3Cc3ccc(C(F)(F)F)cc3)CC2)[nH]1 [Example 78, 5-(4-((3S,8aS)-7,7-difluoro-3-(4-(trifluoromethyl)benzyl)hexahydropyrrolo[1,2-a]pyrazin-2(1H)-yl)piperidin-1-yl)-4H-1,2,4-triazol-3-amine 2,2,2-trifluoroacetate] | 4.60 to 5.00
